# Test results published in PMC8464850, “Sulfonium Ligands of the α7 nAChR” (Molecules, 2021).
# Where a name gives a salt, the structure may show the parent alone.
# What was measured:
# α3β4 nAChR = target: T1, α3β4 nAChR (Homo sapiens, UniProt P30926+P32297); assay: Inhibition of α3β4 100 µM ACh-evoked peak currents; assay type: cell-based; conditions: co-application with 100 µM ACh, peak currents
# T1 construct: expressed in transfected cells; host or cells: Xenopus laevis oocytes (injected RNA)
# T1 sequence (P32297 32-505): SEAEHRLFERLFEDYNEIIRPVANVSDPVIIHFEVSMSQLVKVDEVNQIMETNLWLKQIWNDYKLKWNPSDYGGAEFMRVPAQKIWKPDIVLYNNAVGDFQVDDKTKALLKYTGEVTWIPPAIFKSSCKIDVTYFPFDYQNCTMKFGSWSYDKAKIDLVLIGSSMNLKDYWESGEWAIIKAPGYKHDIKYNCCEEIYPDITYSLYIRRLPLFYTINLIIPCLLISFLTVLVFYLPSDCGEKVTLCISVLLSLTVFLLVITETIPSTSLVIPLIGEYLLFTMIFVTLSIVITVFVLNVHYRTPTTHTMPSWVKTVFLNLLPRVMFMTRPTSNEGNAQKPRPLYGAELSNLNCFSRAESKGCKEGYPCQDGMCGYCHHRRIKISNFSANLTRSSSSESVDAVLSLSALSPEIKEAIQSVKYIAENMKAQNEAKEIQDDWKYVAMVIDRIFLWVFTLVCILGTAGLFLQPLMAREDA
# T1 sequence (P30926 22-498): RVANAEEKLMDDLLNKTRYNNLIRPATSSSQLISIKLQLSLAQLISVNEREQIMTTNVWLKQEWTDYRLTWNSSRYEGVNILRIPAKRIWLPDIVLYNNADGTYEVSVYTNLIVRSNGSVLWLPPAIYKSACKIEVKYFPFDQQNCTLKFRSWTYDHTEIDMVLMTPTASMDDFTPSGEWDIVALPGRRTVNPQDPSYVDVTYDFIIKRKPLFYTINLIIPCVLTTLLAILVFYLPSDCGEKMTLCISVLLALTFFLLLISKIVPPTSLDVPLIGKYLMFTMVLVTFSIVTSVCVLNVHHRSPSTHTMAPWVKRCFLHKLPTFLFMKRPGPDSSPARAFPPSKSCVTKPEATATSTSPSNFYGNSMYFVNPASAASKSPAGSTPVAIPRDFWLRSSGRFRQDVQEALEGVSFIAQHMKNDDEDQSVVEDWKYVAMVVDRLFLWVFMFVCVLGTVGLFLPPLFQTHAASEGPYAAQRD
# Experimental: (§1) Although none of the other sulfonium compounds activated neuronal heteromeric receptors, several of them produced inhibition of ACh-evoked responses. Shown in Figure 7A are concentration-response studies for the compounds that were active antagonists of α3β4 nAChR (Table 3). Some compounds were also tested as antagonists of α4β2 subtypes formed with concatamers (Figure 7B).
# Figure 7 Inhibition of heteromeric nAChR by sulfonium compounds. (A) Inhibition of α3β4 100 µM ACh-evoked peak currents by the co-application of the sulfonium compounds. Data are the averaged of six to eight oocytes (±SEM). To confirm the stability of the ACh responses, applications of ACh plus the sulfonium compounds were alternated with applications of ACh alone. (B) Inhibition of ACh control peak-current responses of α4-containing nAChR formed with concatamers by 100 µM of the sulfonium compounds indicated. Data are the average of six to eight oocytes (±SEM).
# Experiments were conducted using OpusXpress 6000A (Molecular Devices, Union City, CA, USA). Both the voltage and current electrodes were filled with 3 M KCl. Oocytes were voltage-clamped at −60 mV at room temperature (24 °C). The oocytes were bath-perfused with Ringer’s solution (115 mM NaCl, 2.5 mM KCl, 1.8 mM CaCl2, 10 mM HEPES, and 1 μM atropine, pH 7.2) at 2 mL/min for α7 receptors, or 4 mL/min for heteromeric nAChR. To evaluate the effects of experimental compounds, responses were compared to control ACh-evoked responses, defined as the average of two initial applications of ACh made before test applications. ACh control concentrations were 60 µM for α7 receptors; 100 µM for α4(3)β2(2) and α3β4 receptors; 30 µM for α4β2α6β2β3 and muscle-type (αβ1εδ) receptors; and 10 µM for α4(3)β2(2) and α4(2)β2(2)α5 receptors.
# (§2) Solutions were applied from 96-well plates via disposable tips. Drug applications were 12 s in duration, followed by 181 s washout periods for α7 receptors, or 6 s in duration followed by 301 s washout periods for heteromeric nAChR. The responses were calculated as both peak current amplitudes and net charge, as previously described. Data were collected at 50 Hz, filtered at 20 Hz for α7 receptors or filtered at 5 Hz for heteromeric nAChR, and analyzed by Clampfit (Molecular Devices, San Jose, CA, USA) and Excel (Microsoft, Redmond, WA, USA). Data were expressed as means ± SEM from at least four oocytes for each experiment and plotted with Kaleidagraph 4.5.2 (Abelbeck Software, Reading, PA, USA). Multi-cell averages were calculated for comparisons of complex responses. Averages of the normalized data were calculated for each of the 10,322 points in each of the 206.44 s traces (acquired at 50 Hz), as well as the standard errors for those averages.
# [1] = test system: α4β2 subtypes formed with concatamers; assay: Inhibition of ACh control peak-current responses of α4-containing nAChR formed with concatamers; assay type: cell-based, human; conditions: 100 µM compound, Figure 7B
# Experimental: as §1
# Figure 7 Inhibition of heteromeric nAChR by sulfonium compounds. (A) Inhibition of α3β4 100 µM ACh-evoked peak currents by the co-application of the sulfonium compounds. Data are the averaged of six to eight oocytes (±SEM). […]
# as §2, with “Drug applications were 12 s in duration, followed by 181 s washout periods for α7 receptors, or 6 s in duration followed by 301 s washout periods for heteromeric nAChR.” left out
SMILES,IC50 (α3β4 nAChR) [µM],relative antagonist activity [1]
"C[S+](C)c1ccc(O)cc1 [Compound S9, (4-hydroxyphenyl)dimethylsulfonium methyl sulfate]",124 ± 22,–
"C[S+](C)c1cc([N+](=O)[O-])ccc1O.[Br-] [Compound S10, (2-hydroxy-5-nitrophenyl)dimethylsulfonium bromide]",–,least
